Earlier results in patent US12691080B2, “Fenretinide formulations, systems incorporating same, and methods for their use” (ARx, LLC, priority 2024, dated 2026).
Values after ≈ are worked out from the molar mass of the structure shown.

Tests used:
[1] = pH 6.5
[2] = test system: oral epithelium

solubility in water [1]: 0.013 µM (≈ 5.09 ng/mL)
Structure (SMILES): CC1=C(/C=C/C(C)=C/C=C/C(C)=C/C(=O)Nc2ccc(O)cc2)C(C)(C)CCC1 [fenretinide, N-(4-hydroxyphenyl)retinamide]
epithelial proliferation (Ki-67 indices) ([2]; epithelium with higher fenretinide levels (>5 μM)): significantly reduced | transglutaminase 1 levels ([2]; fenretinide levels lower than 5 μM): increased levels | Phase II enzyme UGT1A1 ([2]; lower fenretinide levels): increase | systemically detectable drug ([2]; oral mucosal patch delivery): absence of any systemically detectable drug
